# Assay results: PubChem BioAssay AID2060485 (Molecular Pharmacology Branch, DTP, NCI, 2025)
# Test system: A375 multi-cell spheroids with HUVEC/MSC, viability
# Assay: Anticancer human tumor A375 cell line growth inhibition [GQUAD];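 further: spheroids exposed to compounds for seven days before readout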
# Details: for IC50: curve of first compound; for viability, T/C: stronger effect = lower value
# How it was run: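 Multi-cell-type spheroids of tumor cells with HUVEC and mesenchymal stem cells, treated with drug combinations. Concentrations descend in half-log steps from near clinical Cmax, or from 10 microM where Cmax is unknown; viability read-out.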
# [1] = second compound 0.0316 µM, first compound 0.0316 µM
# [2] = second compound 0.0316 µM, first compound 0.1 µM
# [3] = second compound 0.0316 µM, first compound 0.316 µM
# [4] = second compound 0.0316 µM, first compound 1 µM
# [5] = second compound 0.0316 µM, first compound 3.16 µM
# [6] = second compound 0.0316 µM, first compound 10 µM
# [7] = second compound 0.1 µM, first compound 0.0316 µM
# [8] = second compound 0.1 µM, first compound 0.1 µM
# [9] = second compound 0.1 µM, first compound 0.316 µM
# [10] = second compound 0.1 µM, first compound 1 µM
# [11] = second compound 0.1 µM, first compound 3.16 µM
# [12] = second compound 0.1 µM, first compound 10 µM
# [13] = second compound 0.316 µM, first compound 0.0316 µM
# [14] = second compound 0.316 µM, first compound 0.1 µM
# [15] = second compound 0.316 µM, first compound 0.316 µM
# [16] = second compound 0.316 µM, first compound 1 µM
# [17] = second compound 0.316 µM, first compound 3.16 µM
# [18] = second compound 0.316 µM, first compound 10 µM
# [19] = second compound 1 µM, first compound 0.0316 µM
# [20] = second compound 1 µM, first compound 0.1 µM
# [21] = second compound 1 µM, first compound 0.316 µM
# [22] = second compound 1 µM, first compound 1 µM
# [23] = second compound 1 µM, first compound 3.16 µM
# [24] = second compound 1 µM, first compound 10 µM
# [25] = second compound 3.16 µM, first compound 0.0316 µM
# [26] = second compound 3.16 µM, first compound 0.1 µM
# [27] = second compound 3.16 µM, first compound 0.316 µM
# [28] = second compound 3.16 µM, first compound 1 µM
# [29] = second compound 3.16 µM, first compound 3.16 µM
# [30] = second compound 3.16 µM, first compound 10 µM
# [31] = second compound 10 µM, first compound 0.0316 µM
# [32] = second compound 10 µM, first compound 0.1 µM
# [33] = second compound 10 µM, first compound 0.316 µM
# [34] = second compound 10 µM, first compound 1 µM
# [35] = second compound 10 µM, first compound 3.16 µM
# [36] = second compound 10 µM, first compound 10 µM
structure (smiles),measurement,setting,value
O=C(NO)c1cnc(N2CCN(S(=O)(=O)c3ccc4ccccc4c3)CC2)nc1 + Cc1cnc(CNC(=O)c2c(=O)c3ccc(N4CCCN(C)CC4)nc3n3c2sc2ccccc23)cn1,IC50,second compound 0.0316 µM,0.21 µM
same,IC50,second compound 0.1 µM,0.124 µM
same,IC50,second compound 0.316 µM,0.109 µM
same,IC50,second compound 1 µM,< 0.0316 µM
same,IC50,second compound 3.16 µM,< 0.0316 µM
same,IC50,second compound 10 µM,< 0.0316 µM
same,"viability, T/C",[1],115%
same,"viability, T/C",[2],124%
same,"viability, T/C",[3],11.9%
same,"viability, T/C",[4],0.22%
same,"viability, T/C",[5],0.16%
same,"viability, T/C",[6],0.19%
same,"viability, T/C",[7],75.2%
same,"viability, T/C",[8],59.1%
same,"viability, T/C",[9],10.8%
same,"viability, T/C",[10],0.18%
same,"viability, T/C",[11],0.13%
same,"viability, T/C",[12],0.17%
same,"viability, T/C",[13],64.1%
same,"viability, T/C",[14],53.2%
same,"viability, T/C",[15],9.31%
same,"viability, T/C",[16],0.13%
same,"viability, T/C",[17],0.11%
same,"viability, T/C",[18],0.14%
same,"viability, T/C",[19],44.6%
same,"viability, T/C",[20],36.8%
same,"viability, T/C",[21],0.9%
same,"viability, T/C",[22],0.11%
same,"viability, T/C",[23],0.09%
same,"viability, T/C",[24],0.12%
same,"viability, T/C",[25],32.8%
same,"viability, T/C",[26],23.3%
same,"viability, T/C",[27],0.17%
same,"viability, T/C",[28],0.11%
same,"viability, T/C",[29],0.11%
same,"viability, T/C",[30],0.15%
same,"viability, T/C",[31],28.5%
same,"viability, T/C",[32],22.6%
same,"viability, T/C",[33],0.2%
same,"viability, T/C",[34],0.12%
same,"viability, T/C",[35],0.18%
same,"viability, T/C",[36],0.21%
O=c1[nH]cc(F)c(=O)[nH]1 + Cc1cnc(CNC(=O)c2c(=O)c3ccc(N4CCCN(C)CC4)nc3n3c2sc2ccccc23)cn1,IC50,second compound 0.0316 µM,> 10 µM
same,IC50,second compound 0.1 µM,> 10 µM
same,IC50,second compound 0.316 µM,0.675 µM
same,IC50,second compound 1 µM,< 0.0316 µM
same,IC50,second compound 3.16 µM,< 0.0316 µM
same,IC50,second compound 10 µM,< 0.0316 µM
same,"viability, T/C",[1],98.5%
same,"viability, T/C",[2],105%
same,"viability, T/C",[3],92.4%
same,"viability, T/C",[4],107%
same,"viability, T/C",[5],112%
same,"viability, T/C",[6],96.5%
same,"viability, T/C",[7],75.9%
same,"viability, T/C",[8],67.8%
same,"viability, T/C",[9],82.8%
same,"viability, T/C",[10],81.4%
same,"viability, T/C",[11],88.7%
same,"viability, T/C",[12],63.1%
same,"viability, T/C",[13],56.8%
same,"viability, T/C",[14],51.4%
same,"viability, T/C",[15],50.7%
same,"viability, T/C",[16],49.4%
same,"viability, T/C",[17],48.6%
same,"viability, T/C",[18],45.3%
same,"viability, T/C",[19],44.9%
same,"viability, T/C",[20],41.3%
same,"viability, T/C",[21],47.6%
same,"viability, T/C",[22],51.7%
same,"viability, T/C",[23],45.8%
same,"viability, T/C",[24],37.7%
same,"viability, T/C",[25],40.3%
same,"viability, T/C",[26],33.4%
same,"viability, T/C",[27],34.6%
same,"viability, T/C",[28],36%
same,"viability, T/C",[29],39%
same,"viability, T/C",[30],30.7%
same,"viability, T/C",[31],37.3%
same,"viability, T/C",[32],30%
same,"viability, T/C",[33],32.6%
same,"viability, T/C",[34],33.9%
same,"viability, T/C",[35],30.3%
same,"viability, T/C",[36],29.4%
